Assay [1] concerns Myzus persicae. In words: Myzus persicae oral test. Conditions: 120 h, 20 ppm, oral uptake, after 5 days, read-out: efficacy. The class given is in vivo. How it is done:
Myzus persicae—Oral Test Solvent: 100 parts by weight of acetone To produce a suitable preparation of active compound, 1 part by weight of active compound is dissolved using the specified parts by weight of solvent and made up with water until the desired concentration is attained. 50 μl of the active compound preparation are transferred into microtitre plates and made up to a final volume of 200 μl with 150 μl of IPL41 insect medium (33%+15% sugar). Subsequently, the plates are sealed with parafilm, which a mixed population of green peach aphids (Myzus persicae) within a second microtitre plate is able to puncture and imbibe the solution through it. After 5 days, the efficacy in % is determined. 100% means that all the aphids have been killed; 0% means that no aphids have been killed.

Assay [2] concerns Myzus persicae. Nature of the assay: Myzus persicae spray test (Chinese cabbage leaf discs). The format is in vivo. Conditions: foliar, 120 h, 500 g/ha, after 5-6 days, read-out: efficacy. How it is done: Myzus persicae—Spray Test Solvent: 78 parts by weight of acetone • • 1.5 parts by weight of dimethylformamide Emulsifier: alkylaryl polyglycol ether To produce a suitable preparation of active compound, 1 part by weight of active compound is dissolved using the specified parts by weight of solvent and made up with water containing an emulsifier concentration of 1000 ppm until the desired concentration is attained. To produce further test concentrations, the formulation is diluted with emulsifier-containing water. Discs of Chinese cabbage leaves (Brassica pekinensis) infested by all stages of the green peach aphid (Myzus persicae) are sprayed with an active compound preparation of the desired concentration. After 5-6 days, the efficacy in % is determined. 100% means that all the aphids have been killed; 0% means that no aphids have been killed.

SMILES strings stand for the structures.

Consider `COc1cccc(F)c1S(=O)(=O)NC(=O)c1cn(C)c(-c2c(F)cccc2F)n1` [Example 381], for which the pest or weed control at 20 ppm in the assay with Myzus persicae [1] worked out at 100%. Besides, the pest or weed control at 500 g/ha in the assay on Myzus persicae [2] came out at 100%.
Turning to `Cn1cc(C(=O)NS(=O)(=O)c2ccccc2C(F)(F)F)nc1-c1c(F)cccc1F` [Example 26], the pest or weed control at 20 ppm in the assay on Myzus persicae [1] amounted to 100%. In addition, in the assay with Myzus persicae [2], the pest or weed control at 500 g/ha turned out to be 100%.
For the compound `CCc1ccccc1S(=O)(=O)NC(=O)c1cc(C)n(-c2ncccc2Br)n1` [Example 298], the pest or weed control at 20 ppm in the assay on Myzus persicae [1] was determined as 100%. The pest or weed control at 500 g/ha in the assay on Myzus persicae [2] came out at 100%.
In the case of `Cn1cc(C(=O)NS(=O)(=O)c2ccccc2Cl)nc1-c1c(F)cccc1C#N` [Example 501], the pest or weed control at 20 ppm in the assay with Myzus persicae [1] turned out to be 100%. In addition, in the assay with Myzus persicae [2], the pest or weed control at 500 g/ha turned out to be 100%.
Turning to `Cn1cc(C(=O)NS(=O)(=O)c2ccccc2Cl)nc1-c1c(F)cccc1F` [Example 91], the pest or weed control at 20 ppm in the assay with Myzus persicae [1] stood at 100%. Besides, in the assay on Myzus persicae [2], the pest or weed control at 500 g/ha turned out to be 90%.
For the compound `Cc1cccc([N+](=O)[O-])c1S(=O)(=O)NC(=O)c1cn(C)c(-c2c(F)cccc2F)n1` [Example 367], the pest or weed control at 20 ppm in the assay with Myzus persicae [1] was found to be 100%. The pest or weed control at 500 g/ha in the assay on Myzus persicae [2] came out at 90%.
On to `Cn1c(C(=O)NS(=O)(=O)c2ccccc2Br)cnc1-c1c(F)cccc1F` [Example 162], for which, in the assay on Myzus persicae [1], the pest or weed control at 20 ppm worked out at 100%. For the same compound, the pest or weed control at 500 g/ha in the assay on Myzus persicae [2] is 90%.
The corresponding values for `CCn1cc(C(=O)NS(=O)(=O)c2ccccc2Cl)nc1-c1c(F)cccc1F` [Example 571] are 100% and 100%.
The corresponding values for `Cn1cc(C(=O)NS(=O)(=O)c2ccccc2Cl)nc1-c1ccccc1S(C)(=O)=O` [Example 483] are 100% and 90%.
Take `Cc1cc(C(=O)NS(=O)(=O)c2c(Cl)cccc2Cl)nn1-c1ncccc1Cl` [Example 268]: in the assay with Myzus persicae [1], the pest or weed control at 20 ppm came out at 100%. In addition, the pest or weed control at 500 g/ha in the assay with Myzus persicae [2] was found to be 90%.
Regarding `Cc1ccccc1-c1nc(C(=O)NS(=O)(=O)c2ccccc2Cl)cn1C` [Example 97], the pest or weed control at 20 ppm in the assay on Myzus persicae [1] is 100%. Moreover, the pest or weed control at 500 g/ha in the assay with Myzus persicae [2] worked out at 100%.
For the compound `CCc1[nH]c(-c2c(F)cccc2F)nc1C(=O)NS(=O)(=O)C(C)C` [Example 126], the pest or weed control at 20 ppm in the assay with Myzus persicae [1] was 90%. Moreover, the pest or weed control at 500 g/ha in the assay on Myzus persicae [2] worked out at 90%.
As to `Cc1ccccc1S(=O)(=O)NC(=O)c1cn(C)c(-c2c(F)cccc2Cl)n1` [Example 110], the pest or weed control at 20 ppm with Myzus persicae [1] was 100%. Also, the pest or weed control at 500 g/ha in the assay with Myzus persicae [2] amounted to 90%.
For `COc1ccc(C)c(S(=O)(=O)NC(=O)c2cn(C)c(-c3cccnc3Cl)n2)c1` [Example 565], the pest or weed control at 20 ppm in the assay with Myzus persicae [1] was determined as 100%. Moreover, in the assay with Myzus persicae [2], the pest or weed control at 500 g/ha came to 100%.
On to `CCc1ccc(OC)c(S(=O)(=O)NC(=O)c2cn(C)c(-c3ccccc3Cl)n2)c1` [Example 278], for which the pest or weed control at 20 ppm in the assay with Myzus persicae [1] stood at 100%. The pest or weed control at 500 g/ha in the assay with Myzus persicae [2] came to 100%.
For the compound `CCS(=O)(=O)NC(=O)c1cn(-c2ccccc2)c(-c2ccccc2Cl)n1` [Example 75], in the assay on Myzus persicae [1], the pest or weed control at 20 ppm was determined as 90%. The pest or weed control at 500 g/ha with Myzus persicae [2] was 100%.
Take `CCn1cc(S(=O)(=O)NC(=O)c2cn(C)c(-c3c(F)cccc3F)n2)c(C)n1` [Example 181]: the pest or weed control at 20 ppm in the assay with Myzus persicae [1] was 90%. Also, the pest or weed control at 500 g/ha in the assay with Myzus persicae [2] turned out to be 100%.
Consider `COc1ccc(Cl)c(S(=O)(=O)NC(=O)c2cn(C)c(-c3ccccc3F)n2)c1` [Example 95], for which the pest or weed control at 20 ppm in the assay with Myzus persicae [1] was 100%. For the same compound, the pest or weed control at 500 g/ha with Myzus persicae [2] amounted to 90%.
For `Cn1nc(C(=O)NS(=O)(=O)c2ccccc2Cl)nc1-c1c(F)cccc1F` [Example 11], in that order: 100% and 100%.
The corresponding values for `COc1ccc(Cl)c(S(=O)(=O)NC(=O)c2nc(-c3c(F)cccc3F)n(C)n2)c1` [Example 12] are 90% and 90%.
For the compound `COCCS(=O)(=O)NC(=O)c1cn(C)c(-c2c(F)cccc2Cl)n1` [Example 150], in the assay with Myzus persicae [1], the pest or weed control at 20 ppm was 90%. Also, the pest or weed control at 500 g/ha in the assay with Myzus persicae [2] came out at 90%.

Source of the values: patent publication US20200288710A1, “SUBSTITUTED SULPHONAMIDES FOR CONTROLLING ANIMAL PESTS” (BAYER CROPSCIENCE AKTIENGESELLSCHAFT, priority 2016, published 2020).
